Test system: lymphoid cells in blood, thymus, lymph nodes, spleen and red bone marrow
Assay: Effect on immune system of healthy guinea pigs
Format: in vivo
Procedure: Forty male guinea pigs were used in the following test. Most of the animals were treated daily with a single dose (i.m.) of Thr-Ala-Glu-Glu-Lys (SEQ ID NO:34) (HM897) […] for five days. Control animals were treated with single daily doses of 0.5 ml (i.m.) of normal saline.
Tested parameters: clinical blood examination, non-specific resistance by lysosomal cationic test; “active” T-lymphocytes and total T-lymphocytes (E-RFC), B-lymphocytes (EAC-RFC) were measured in blood, thymus, lymph nodes, spleen and red bone marrow. […] Blood lymphocyte functional activity was evaluated by leukocyte migration inhibition (LMI) with ConA. Histological examinations of thymus, spleen, lymph nodes, bone marrow and adrenals were carried out. All of these indicia were measured on 10th and 20th days after onset of the treatment.

In the case of Thr-Ala-Glu-Glu-Lys (TAEEK) [HM897], the lymphocyte stimulation (10th day) is reported as “predominant T-lymphocyte stimulation”, the “mitotic activity in lymph nodes, spleen and bone marrow” value (10th day after onset of administration) is reported as “increased level of mitotic activity” and the lymphocyte stimulation (20th day) is reported as “both T- and B-lymphocytes”. The “lymphoid cells proliferation and differentiation in thymus and bone marrow” value (healthy guinea pigs, i.m. single daily dose for five days) was “stimulates lymphoid cells proliferation and differentiation in thymus and bone marrow”.
